Reference: patent publication US12399167B2 (priority 2019, dated 2025)
Values after ≈ are worked out from the molar mass of the structure shown. Values joined by “and” are separate entries in the source; they are usually repeats but may differ in a detail not shown here. Identical values can stand only once. Like-named read-outs stand apart in the source and are kept apart here.

Legend:
[1] = tested on: zebrafish embryos and larvae (AB strain); conditions: for NH: Number of health fish: of 60 embryos
Description: Toxicant exposure of the embryos: transferring healthy zebrafish embryos laid within 4 hours with droppers into 24 well plates which serve as embryo incubation containers, adding one embryo and 2 mL of the test drug liquid into each well, setting four replicates at a time for each concentration, using a total of 4×15 embryos per concentration; then, placing the 24 well plates into an incubator at a temperature of 26±1° C., allowing incubation under a condition of 14 h light: 10 h dark, recording the death number and the incubation time of the embryos every day, and replacing the test drug liquids once every two days during this test stage. Each concentration consumes a total of 60 embryos, and thus multiple 24 well plates are used during the test.
Selection of a test organism: zebrafish is selected as the test organism, the zebrafish is AB strain and embryos used in the test are propagated and obtained by the following methods: before the test, zebrafish broodstock is reared in water at a temperature of 26±1° C., the ratio of light time to dark time is 14 h:10 h, and when it is lighted, it should be naturally illuminated in a 4.8 m×3.0 m room, plus four 40 W fluorescent lamps, and the feeding lasts at least 2 weeks in an environment which is oxygenated by aeration, the zebrafish broodstock is fed once a day during pre-cultivation, and feces and food residues are removed in time. The zebrafish is purchased from the Institute of Hydrobiology of Chinese Academy of Science. The zebrafish has the advantages of short growth cycle, strong reproductive ability, transparent fertilized eggs, and easy observation of embryonic development, making it an important model organism in aquatic ecological toxicology research.
Toxicant exposure of larvae: recording the number of the larvae at the end of the embryo hatching, transferring the larvae into glass beakers containing 200 mL of the test drug liquid with the corresponding test concentration, replacing the test drug liquids once every two days during this test stage that lasts 30 days after hatching, and feeding the zebrafish larvae with yolk in the first three days and then with fairy shrimp twice a day, wherein the larvae are firstly fed on the fourth or fifth day after spawning. The feed amount is adjusted according to the actual situation so as to be able to freely ingest and avoid excess.
During the test, if relevant test data are found to be not in the preceding scopes, then the current test is invalid, and a new test is required to be carried out again.
Observation in the test: observing the hatching rate and survival rate and recording the quantity of the larvae once a day; checking the larvae's malformation, the number of malformed larvae and abnormal behaviors once a week; removing impurities and dead larvae in beakers in a timely manner; all live larvae of the control groups and the concentration test groups are anesthetized with MS-222 for measurement of the body lengths and wet weights one by one at the end of the test, wherein the body length of each adolescent fish is measured with a vernier caliper, and the wet weight of each adolescent fish is weighed with an electronic balance. The reciprocal sensibility of the electronic balance is 0.00001 g, and the moisture on the body surface of each fish needs to be removed when the wet weight is weighed.
DPS statistical analysis software is the existing software and therefore is not described in detail here. Any other software that can implement the statistical analysis function is also available.

[2] = 20° C.; cited from earlier work

**Q.** What does the source list for `CN/C(=N/CC1CCOC1)N[N+](=O)[O-]` (centres unmarked) [dinotefuran]?
**A.** weights of the larvae versus control groups ([1]; 9.375 mg a.i./L): obviously different; AL: Average length of live fish ([1]; 9.375 mg a.i./L, end of test): 15.86 ± 0.95 a mm; AM: Accumulative mortality ([1]; 9.375 mg a.i./L, end of test): 26.67 a %; NH: Number of health fish ([1]; 9.375 mg a.i./L, end of test): 44 Piece; Average weight of Live fish ([1]; 9.375 mg/L, end of test): 16.53 ± 2.18 b mg; weights of the larvae versus control groups ([1]; 18.75 mg a.i./L): obviously different; AL: Average length of live fish ([1]; 18.75 mg a.i./L, end of test): 15.83 ± 0.88 a mm; AM: Accumulative mortality (death rate of the larvae) ([1]; 18.75 mg a.i./L, end of test): 41.67% and 41.67 b %; NH: Number of health fish ([1]; 18.75 mg a.i./L, end of test): 35 Piece; Average weight of Live fish ([1]; 18.75 mg/L, end of test): 14.21 ± 1.68 c mg; body lengths of the larvae versus control groups ([1]; 37.5 mg a.i./L): obviously different; weights of the larvae versus control groups ([1]; 37.5 mg a.i./L): obviously different; AL: Average length of live fish ([1]; 37.5 mg a.i./L, end of test): 13.52 ± 1.61 b mm; AM: Accumulative mortality (death rate of the larvae) ([1]; 37.5 mg a.i./L, end of test): 46.67% and 46.67 b %; NH: Number of health fish ([1]; 37.5 mg a.i./L, end of test): 32 Piece; Average weight of Live fish ([1]; 37.5 mg/L, end of test): 13.89 ± 1.96 c mg; body lengths of the larvae versus control groups ([1]; 75.0 mg a.i./L): obviously different; weights of the larvae versus control groups ([1]; 75.0 mg a.i./L): obviously different; AL: Average length of live fish ([1]; 75.0 mg a.i./L, end of test): 12.83 ± 1.53 b mm; AM: Accumulative mortality (death rate of the larvae) ([1]; 75.0 mg a.i./L, end of test): 55.0% and 55.0 b %; NH: Number of health fish ([1]; 75.0 mg a.i./L, end of test): 27 Piece; Average weight of Live fish ([1]; 75.0 mg/L, end of test): 13.29 ± 2.96 c mg; fate of all larvae at the end of the test ([1]; 150 mg a.i./L): died; fate of all larvae at the end of the test ([1]; 300 mg a.i./L): died; minimum observable effect concentration on the body lengths of the larvae ([1]; end of test): 37.5 mg a.i./L; minimum observable effect concentration on the weights of the larvae ([1]; end of test): 9.375 mg a.i./L; unobservable effect concentration on the body lengths of the larvae ([1]; end of test): 18.75 mg a.i./L; toxic symptoms during the exposure stage ([1]; test groups): no obvious toxic symptoms were observed except malformation of several fishes before death; solubility in methanol [2]: 57 mg/mL (≈ 282 mM)
